Results published in EP0342003B1, “Use of 15-ketoprostaglandin E or F compounds for uterine contraction” (Kabushiki Kaisha Ueno Seiyaku Oyo Kenkyujo, priority 1988, dated 1989).

How the values were obtained:
uterus = test: Uterine contraction of an isolated uterus section in a Magnus tube; format: cell-based; conditions: Rattus norvegicus, ratio to contraction by oxytocin (1mU) taken as 100%; for activation at 1 µM: Dose 1x10^-6 M; for activation at 0.3 µM: Dose 3x10⁻⁷ M
Method: Test Example 1 (Uterine contraction)
An estrous rat (female, 150g) was used as test animals. The rat was sacrificed by bleeding and uterus was extirpated. A section of about 2.0cm was cut off and hung in a Magnus tube containing Tyrode solution or Beauvillain solution.
The section of uterus was held for about 5 minutes until it because stable and then contracted several times by administering oxytocin (1mU). After stable contraction was obtained, the section received test compounds. Contractions obtained by the test compounds were expressed as a ratio to the contraction by oxytocin which was taken as 100%. The results are shown in Table 1 (15-keto-PGE derivatives) and Table 2 (15-keto-PGF derivatives).

ileum = test: Intestinal contraction of an isolated ileum section in a Magnus tube (reference example); format: cell-based, Wistar rat; conditions: result in words
Method: Test Example 3 (Intestinal contraction ... Reference example)
A section was cut off from ileum of a Wistar rat (male) and hung in a Magnus tube. The section was contracted several times by administering acetylcholine (1x10⁻⁶ g/ml) and received test compounds after giving two or more contractions of the same intensity. Contractions obtained by the test compounds were expressed as a ratio to the contraction by acetylcholine (1x10⁻⁶ g/ml) which was taken as 100%, and EC₅₀ values were calculated as a concentrations for 50% contraction.

Q: How did the activation at 1 µM (uterus; Table 1) turn out when `CCCCC(F)C(=O)CC[C@H]1[C@H](O)CC(=O)[C@@H]1C/C=C\CCCC(=O)O` (stereo partly shown) [X-4, 13,14-dihydro-15-keto-16R,S-fluoro-PGE2] was run?
A: 87%

Q: How did the activation at 10 µM (uterus; Table 2, Dose 1x10⁻⁵ M) turn out when `CCCCC(F)C(=O)/C=C/[C@@H]1[C@@H](C/C=C\CCCC(=O)OC)[C@@H](O)C[C@H]1O` (stereo partly drawn) [Y-11, 15-keto-16R,S-fluoro-PGF2α methyl ester] was run?
A: 95%

Q: Which activation at 0.3 µM (uterus; Table 2) does the source give for `CCCCCCC(F)C(=O)CC[C@@H]1[C@@H](C/C=C\CCCC(=O)O)[C@@H](O)C[C@H]1O` (stereo partly drawn) [Y-6, 13,14-dihydro-15-keto-20-ethyl-16R,S-fluoro-PGF2α] here?
A: 92%

Q: Which activation at 100 µM (uterus; Table 2, Dose 1x10⁻⁴ M) does the source give for `COCCCCCC(=O)CC[C@@H]1[C@@H](C/C=C\CCCC(=O)OC)[C@@H](O)C[C@H]1O` [Y-9, 13,14-dihydro-15-keto-20-methoxy-PGF2α methyl ester] here?
A: 50%

Q: How did the activation at 3 µM (uterus; Table 1, Dose 3x10^-6 M) turn out when `CCCCC(F)C(=O)CC[C@H]1[C@H](O)CC(=O)[C@@H]1C/C=C\CCCC(=O)OC` (stereo partly shown) [X-5, 13,14-dihydro-15-keto-16R,S-fluoro-PGE2 methyl ester] was run?
A: 64%

Q: Which activation at 10 µM (uterus; Table 1, Dose 1x10^-5 M) does the source give for `CCCCC(F)C(=O)CC[C@H]1[C@H](C)CC(=O)[C@@H]1CC(=O)CCCCC(=O)OCC` (stereo partly drawn) [X-2, 13,14-dihydro-6,15-diketo-16R,S-fluoro-11-dehydroxy-11R-methyl-PGE1 ethyl ester] here?
A: 82%

Q: How did the activation at 10 µM (uterus; Table 1, Dose 1x10^-5 M) turn out when `COCCCCC(C)(C)C(=O)CC[C@H]1[C@H](O)CC(=O)[C@@H]1C/C=C\CCCC(=O)OC` [X-8] was run?
A: 64%

Q: How did the intestinal contraction (ileum) turn out when `CCCCCC(=O)CC[C@@H]1[C@@H](C/C=C\CCCC(=O)OC)[C@@H](O)C[C@H]1O` [13,14-dihydro-15-keto-PGF2α methyl ester] was run?
A: without intestinal contraction

Q: `CCCCC(F)C(=O)CC[C@@H]1[C@@H](C/C=C\CCCC(=O)OCC)[C@@H](O)C[C@H]1C` (stereo partly drawn) [Y-4, 13,14-dihydro-15-keto-16R,S-fluoro-11-dehydroxy-11R-methyl-PGF2α ethyl ester] was tested. Which activation at 100 µM (uterus; Table 2, Dose 1x10⁻⁴ M) did it give?
A: 50%

Q: Which activation at 1 µM (uterus; Table 1) does the source give for `CCCCC(F)C(=O)/C=C/[C@H]1[C@H](O)CC(=O)[C@@H]1C/C=C\CCCC(=O)O` (stereo partly shown) [X-11] here?
A: 80%

Q: For `O=C(O)CCC/C=C\C[C@H]1C(=O)C[C@@H](O)[C@@H]1CCC(=O)COc1cccc(C(F)(F)F)c1` [X-15], which activation at 1 µM (uterus; Table 1) is on record?
A: 32%

Q: How did the activation at 1 µM (uterus; Table 1) turn out when `CCCCC(F)(F)C(=O)CC[C@H]1[C@H](O)CC(=O)[C@@H]1C/C=C\CCCC(=O)O` [X-14] was run?
A: 81%

Q: `CCCCCCC(F)C(=O)CC[C@@H]1[C@@H](C/C=C\CCCC(=O)OC)[C@@H](O)C[C@H]1C` (stereo partly drawn) [Y-8, 13,14-dihydro-15-keto-20-ethyl-16R,S-fluoro-11-dehydroxy-11R-methyl-PGF2α methyl ester] was tested. Which activation at 100 µM (uterus; Table 2, Dose 1x10⁻⁴ M) did it give?
A: 50%

Q: For `CCCCC(F)C(=O)CC[C@H]1[C@H](O)CC(=O)[C@@H]1C/C=C\CCCC(=O)OCC` (stereo partly shown) [X-6, 13,14-dihydro-15-keto-16R,S-fluoro-PGE2 ethyl ester], which activation at 10 µM (uterus; Table 1, Dose 1x10^-5 M) is on record?
A: 89%

Q: Which activation at 1 µM (uterus; Table 1) does the source give for `CCCCC(F)(F)C(=O)CC[C@H]1[C@H](O)CC(=O)[C@@H]1C/C=C\CCCC(=O)OC` [X-13] here?
A: 63%

Q: With `CCCCC(F)(F)C(=O)CC[C@@H]1[C@@H](C/C=C\CCCC(=O)OC)[C@@H](O)C[C@H]1O` [Y-3, 13,14-dihydro-15-keto-16,16-difluoro-PGF2α methyl ester] as the molecule, how does the activation at 3 µM (uterus; Table 2, Dose 3x10⁻⁶ M) read?
A: 82%

Q: With `CCCCC(F)C(=O)CC[C@H]1[C@H](O)CC(=O)[C@@H]1CC(=O)CCCCC(=O)OCC` (stereo partly shown) [X-1, 13,14-dihydro-6,15-diketo-16R,S-fluoro-PGE1 ethyl ester] as the molecule, how does the activation at 100 µM (uterus; Table 1, Dose 1x10^-4 M) read?
A: 86%

Q: How did the activation at 10 µM (uterus; Table 1, Dose 1x10^-5 M) turn out when `CCCCCC(F)C(=O)CC[C@H]1[C@H](O)CC(=O)[C@@H]1C/C=C\CCCC(=O)OC` (stereo partly shown) [X-10] was run?
A: 80%

Q: For `CCCCC(F)C(=O)CC[C@H]1[C@H](C)CC(=O)[C@@H]1C/C=C\CCCC(=O)OCC` (stereo partly drawn) [X-7, 13,14-dihydro-15-keto-16R,S-fluoro-11-dehydroxy-11R-methyl-PGE2 ethyl ester], which activation at 100 µM (uterus; Table 1, Dose 1x10^-4 M) is on record?
A: 50%

Q: With `CCCCC(O)C(=O)CC[C@H]1[C@H](O)CC(=O)[C@@H]1C/C=C\CCCC(=O)OCC` (stereo partly shown) [X-3, 13,14-dihydro-15-keto-16R,S-hydroxy-PGE2 ethyl ester] as the molecule, how does the activation at 100 µM (uterus; Table 1, Dose 1x10^-4 M) read?
A: 50%

Q: With `CCCCCCC(F)C(=O)CC[C@@H]1[C@@H](C/C=C\CCCC(=O)OC)[C@@H](O)C[C@H]1O` (stereo partly drawn) [Y-7, 13,14-dihydro-15-keto-20-ethyl-16R,S-fluoro-PGF2α methyl ester] as the molecule, how does the activation at 10 µM (uterus; Table 2, Dose 1x10⁻⁵ M) read?
A: 85%

Q: How did the activation at 1 µM (uterus; Table 1) turn out when `CCCCC(F)C(=O)CC[C@H]1[C@H](O)CC(=O)[C@@H]1CCCCCCC(=O)O` (stereo partly shown) [X-12] was run?
A: 34%

Q: `CCCCC(F)C(=O)/C=C/[C@H]1[C@H](O)CC(=O)[C@@H]1C/C=C\CCCC(=O)OC` (stereo partly shown) [X-9] was tested. Which activation at 10 µM (uterus; Table 1, Dose 1x10^-5 M) did it give?
A: 84%

Q: For `CCCCC(F)C(=O)CC[C@@H]1[C@@H](C/C=C\CCCC(=O)O)[C@@H](O)C[C@H]1O` (stereo partly drawn) [Y-1, 13,14-dihydro-15-keto-16R,S-fluoro-PGF2α], which activation at 0.3 µM (uterus; Table 2) is on record?
A: 89%

Q: How did the activation at 3 µM (uterus; Table 2, Dose 3x10⁻⁶ M) turn out when `CCCCC(F)C(=O)CC[C@@H]1[C@@H](C/C=C\CCCC(=O)OC)[C@@H](O)C[C@H]1O` (stereo partly drawn) [Y-2, 13,14-dihydro-15-keto-16R,S-fluoro-PGF2α methyl ester] was run?
A: 70%

Q: For `CCCCCC(F)C(=O)CC[C@@H]1[C@@H](C/C=C\CCCC(=O)OC)[C@@H](O)C[C@H]1O` (stereo partly drawn) [Y-5, 13,14-dihydro-15-keto-16R,S-fluoro-20-methyl-PGF2α methyl ester], which activation at 3 µM (uterus; Table 2, Dose 3x10⁻⁶ M) is on record?
A: 42%

Q: With `O=C(O)CCC/C=C\C[C@@H]1[C@@H](CCC(=O)COc2cccc(C(F)(F)F)c2)[C@H](O)C[C@@H]1O` [Y-12, 13,14-dihydro-15-keto-16-desbutyl-16-m-trifluoromethylphenoxy-PGF2α] as the molecule, how does the activation at 0.1 µM (uterus; Table 2, Dose 1x10⁻⁷ M) read?
A: 52%

Q: With `COC(=O)CCC/C=C\C[C@@H]1[C@@H](CCC(=O)COc2cccc(C(F)(F)F)c2)[C@H](O)C[C@@H]1O` [Y-10, 13,14-dihydro-15-keto-16-desbutyl-16-m-trifluoromethylphenoxy-PGF2α methyl ester] as the molecule, how does the activation at 0.3 µM (uterus; Table 2) read?
A: 92%
